Measurements: patent US20060069132A1, “Azolecarboxamide herbicides” (priority 2004, published 2006)

How the values were obtained:
large crabgrass (DIGSA) = experiment: Test J Compounds 2 and 6 alone and in combination with other herbicides, foliage spray; assay type: in vivo, Digitaria sanguinalis; set-up: key to DIGSA Obsd.: 0 = no effect, 100 = complete control; conditions: for DIGSA Obsd.: applied alone; for observed effect of mixture compared with additive effect expected from Colby's Equation: crabgrass, foliage spray, 15 days after treatment
Summary of the method: (§1)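 Corn was cv. 'Pioneer 33G26'; all species were treated postemergence at the 1- to 4-leaf stage with a 541 L/ha spray including nonionic surfactant. Values are triplicate means of 0–100 visual ratings at 15 days; additive expectations for mixtures follow Colby, Pa+b = Pa + Pb − PaPb/100.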

barnyardgrass (ECHCG) = experiment: as above; assay type: in vivo, Echinochloa crus-galli; set-up: key: percentage herbicidal effect (observed); conditions: applied alone
Summary of the method: as §1

blackgrass (ALOMY) = experiment: as above; assay type: in vivo, Alopecurus myosuroides; set-up: key: 0 = no effect, 100 = complete control; conditions: applied alone
Summary of the method: as §1

Russian thistle = experiment: Test F pre-/postemergence herbicide test; assay type: in vivo, Salsola kali; conditions: 125 g ai/ha
Description: (§2) Seeds of plant species selected from annual blugrass (Poa annua L.), blackgrass (Alopecurus myosuroides Huds.), catchweed bedstraw (Gallium aparine L.), common chickweed (Stellaria media (L.) Vill./Cyr.), downy bromegrass (Bromus tectorum L.), green foxtail (Setaria viridis (L.) Beauv.), Italian ryegrass (Lolium multiflorum Lam.), kochia (Kochia scoparia (L.). Schrad.), lambsquarters (Chenopodium album L.), littleseed canarygrass (Phalaris minor Retz.), pigweed (Amaranthus retroflexus L.), Russian thistle (Salsola kali L. ssp. Ruthenica (Iljin) Soo), wild buckwheat (Polygonum convolvulus L.), wild mustard (Sinapis arvensis L.), wild oat (Avena fatua L.), windgrass (Apera spica-venti (L.) Beauv.), winter barley (Hordeum vulgare L.), and wheat (Triticum aestivum L.) were planted and treated preemergence with test chemicals formulated in a non-phytotoxic solvent mixture which included a surfactant.
(§3) At the same time, plants selected from these crop and weed species were treated with postemergence applications of some of the test chemicals formulated in the same manner. Plants ranged in height from 2 to 18 cm (1- to 4-leaf stage) for postemergence treatments. Treated plants and controls were maintained in a greenhouse for 12 to 14 days, after which time all species were compared to controls and visually evaluated. […]

windgrass = experiment: Test F pre-/postemergence herbicide test; assay type: in vivo, Apera spica-venti; conditions: 125 g ai/ha
Description: as §2, §3

CCNC(=O)c1ccc(F)c(NC(=O)c2cc(C(C)(C)C)nn2CC)c1 [Compound 2, 3-(1,1-dimethylethyl)-1-ethyl-N-[5-[(ethylamino)carbonyl]-2-fluorophenyl]-1H-pyrazole-5-carboxamide]
DIGSA Obsd. (large crabgrass (DIGSA); 62 g a.i./ha): 5 | DIGSA Obsd. (large crabgrass (DIGSA); 125 g a.i./ha): 15 | observed effect of mixture compared with additive effect expected from Colby's Equation (large crabgrass (DIGSA); mixture with diuron): greater than additive | observed effect of mixture compared with additive effect expected from Colby's Equation (large crabgrass (DIGSA); mixture with terbacil): greater than additive | ECHCG Obsd. (barnyardgrass (ECHCG); 62 g a.i./ha): 13 | ECHCG Obsd. (barnyardgrass (ECHCG); 125 g a.i./ha): 8 | ALOMY Obsd. (blackgrass (ALOMY); 62 g a.i./ha): 15 | ALOMY Obsd. (blackgrass (ALOMY); 125 g a.i./ha): 13

CCc1nn(C(C)(C)C)cc1C(=O)Nc1cc(C(=O)N(CC)CC)ccc1F [Compound 223]
Plant response rating (0-100), Thistle (Russian thistle; Postemergence): 60 | Plant response rating (0-100), Thistle (Russian thistle; Preemergence): 60 | Plant response rating (0-100), Windgrass (windgrass; Postemergence): 50 | Plant response rating (0-100), Windgrass (windgrass; Preemergence): 100
